Experimental data: patent publication US20170037111A1, “Novel peptides and combination of peptides for use in immunotherapy against ovarian cancer and other cancers” (immatics biotechnologies GmbH, priority 2015, published 2017)

Legend:
CD8+ T cells = assay: In vitro T-cell priming (immunogenicity) with aAPCs loaded with peptide/MHC and anti-CD28, pMHC multimer readout; type: cell-based, human; details: in vitro immunogenicity; HLA-A*02 restricted peptides; positive wells among evaluable
From the text: In order to obtain information regarding the immunogenicity of the TUMAPs of the present invention, the inventors performed investigations using an in vitro T-cell priming assay based on repeated stimulations of CD8+ T cells with artificial antigen presenting cells (aAPCs) loaded with peptide/MHC complexes and anti-CD28 antibody.
In order to perform in vitro stimulations by artificial antigen presenting cells loaded with peptide-MHC complex (pMHC) and anti-CD28 antibody, the inventors first isolated CD8+ T cells from fresh HLA-A*02 leukapheresis products via positive selection using CD8 microbeads (Miltenyi Biotec, Bergisch-Gladbach, Germany) of healthy donors obtained from the University clinics Mannheim, Germany, after informed consent.
PBMCs and isolated CD8+ lymphocytes were incubated in T-cell medium (TCM) until use consisting of RPMI-Glutamax (Invitrogen, Karlsruhe, Germany) supplemented with 10% heat inactivated human AB serum (PAN-Biotech, Aidenbach, Germany), 100 U/ml Penicillin/100 μg/ml Streptomycin (Cambrex, Cologne, Germany), 1 mM sodium pyruvate (CC Pro, Oberdorla, Germany), 20 μg/ml Gentamycin (Cambrex). 2.5 ng/ml IL-7 (PromoCell, Heidelberg, Germany) and 10 U/ml IL-2 (Novartis Pharma, Nürnberg, Germany) were also added to the TCM at this step.
Generation of pMHC/anti-CD28 coated beads, T-cell stimulations and readout was performed in a highly defined in vitro system using four different pMHC molecules per stimulation condition and 8 different pMHC molecules per readout condition.
The purified co-stimulatory mouse IgG2a anti human CD28 Ab 9.3 (Jung et al., 1987) was chemically biotinylated using Sulfo-N-hydroxysuccinimidobiotin as recommended by the manufacturer (Perbio, Bonn, Germany). Beads used were 5.6 μm diameter streptavidin coated polystyrene particles (Bangs Laboratories, Illinois, USA).
pMHC used for positive and negative control stimulations were A*0201/MLA-001 (peptide […] (SEQ ID NO. 664) from modified Melan-A/MART-1) and A*0201/DDX5-001 ([…] from DDX5, SEQ ID NO. 665), respectively.
800.000 beads/200 μl were coated in 96-well plates in the presence of 4×12.5 ng different biotin-pMHC, washed and 600 ng biotin anti-CD28 were added subsequently in a volume of 200 μl. Stimulations were initiated in 96-well plates by co-incubating 1×10^6 CD8+ T cells with 2×10^5 washed coated beads in 200 μl TCM supplemented with 5 ng/ml IL-12 (PromoCell) for 3 days at 37° C. Half of the medium was then exchanged by fresh TCM supplemented with 80 U/ml IL-2 and incubating was continued for 4 days at 37° C. This stimulation cycle was performed for a total of three times. For the pMHC multimer readout using 8 different pMHC molecules per condition, a two-dimensional combinatorial coding approach was used as previously described (Andersen et al., 2012) with minor modifications encompassing coupling to 5 different fluorochromes. Finally, multimeric analyses were performed by staining the cells with Live/dead near IR dye (Invitrogen, Karlsruhe, Germany), CD8-FITC antibody clone SK1 (BD, Heidelberg, Germany) and fluorescent pMHC multimers. For analysis, a BD LSRII SORP cytometer equipped with appropriate lasers and filters was used. Peptide specific cells were calculated as percentage of total CD8+ cells. Evaluation of multimeric analysis was done using the FlowJo software (Tree Star, Oregon, USA). In vitro priming of specific multimer+CD8+ lymphocytes was detected by comparing to negative control stimulations.
Exemplary flow cytometry results after TUMAP-specific multimer staining for two peptides of the invention are shown in FIG. 3 together with corresponding negative controls.

HLA-A*02:01 = HLA-A*02:01 (Homo sapiens, UniProt P04439, D140Y/D185E/D98H/E176V/E277Q/G131W/G231S/I119V/I121R/I166T/I218V/L300P/L318F/N151K/N90K/P208A/P217A/Q86G/Q94H/R138H/R169H/T345S); assay: MHC binding assay (UV-ligand exchange, β2m ELISA, peptide exchange yield); details: MHC class I binding score; binding to HLA-A*02:01 ranged by peptide exchange yield (UV-ligand exchange, β2m ELISA)
How it was run: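 Binding is expressed as peptide exchange yield: stabilized MHC complexes were quantified by β2m ELISA, with a 450 nm TMB read-out on streptavidin-coated plates. Complexes came from UV-ligand exchange, where UV irradiation cleaves a photolabile peptide so the candidate peptide can load.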

ovarian cancer = details: clinical studies, phase as stated; cited from earlier work

Peptide exchange (HLA-A*02:01) | Substance | Wells positive [%] (CD8+ T cells) | clinical effect in ovarian cancer patients (ovarian cancer)
″++″ (≧20% = ++) | 319 (SLEPQIQPV; listed as Homo sapiens) [compound 319] | ″+″ (<20% = +) | –
″+++″ (≧50% = +++) | 384 (ILFANPNIFV; listed as Homo sapiens) [compound 384] | ″+″ (<20% = +) | –
″++++″ (≧75% = ++++) | 395 (ALALGGIAVV; listed as Homo sapiens) [compound 395] | ″+++″ (50%-69% = +++) | –
″+++″ (≧50% = +++) | 443 (GLWEIENNPTV; listed as Homo sapiens) [compound 443] | ″+″ (<20% = +) | –
″+++″ (≧50% = +++) | 446 (QLIPALAKV; listed as Homo sapiens) [compound 446] | ″++″ (20%-49% = ++) | –
″+++″ (≧50% = +++) | 454 (KLPPPPPQA; listed as Homo sapiens) [compound 454] | ″++″ (20%-49% = ++) | –
″++++″ (≧75% = ++++) | 460 (AMLEKNYKL; listed as Homo sapiens) [compound 460] | ″+″ (<20% = +) | –
″+++″ (≧50% = +++) | 463 (SLVESHLSDQLTL; listed as Homo sapiens) [compound 463] | ″++″ (20%-49% = ++) | –
″+++″ (≧50% = +++) | 489 (KMWEELPEVV; listed as Homo sapiens) [compound 489] | ″+″ (<20% = +) | –
″++″ (≧20% = ++) | 499 (KIFDIDEAEEGV; listed as Homo sapiens) [compound 499] | ″+″ (<20% = +) | –
″++″ (≧20% = ++) | 511 (FLDPYCSASV; listed as Homo sapiens) [compound 511] | ″+″ (<20% = +) | –
″+++″ (≧50% = +++) | 518 (KLNAEVACV; listed as Homo sapiens) [compound 518] | ″++″ (20%-49% = ++) | –
″++″ (≧20% = ++) | 603 (FLIEPEHVNTV; listed as Homo sapiens) [compound 603] | ″+″ (<20% = +) | –
– | Ipilimumab: anti-CTLA4 antibody, which enhances T cell activity | – | significant anti-tumor effects
– | MORAb-003: anti-folate receptor alpha antibody | – | limited clinical benefit
– | bevacizumab: anti-VEGF antibody | – | appears to be advantageous
– | catumaxomab | – | promising results
– | oregovomab | – | promising results
